The source of these data is patent US20230285570A1, “THERAPEUTICALLY USEFUL CURE-PRO MOLECULES FOR E3 LIGASE MEDIATED DEGRADATION OF PROTEINS, AND METHODS OF MAKING AND USING THEM” (CORNELL UNIVERSITY, priority 2020, published 2023).

Structures are written as SMILES. Entries after “also recorded” stand apart in the source; their conditions may differ.

Experiment [1] has as its target T1, c-MYC (Homo sapiens, UniProt P01106). Kind of experiment: CURE-PRO-mediated c-MYC degradation in HT29 cells, Western blot. Format: cell-based. Details: endogenous in cells; host or cells: HT29. The procedure: (§1) Namalwa, Ramosm HeLa, MCF7, or HT29 HCT116 cells (2.5-3×10^6) were treated for 24 hours with the indicated compounds solubilized in DMSO. The cells were washed in ice-cold PBS and were then lysed in RIPA lysis buffer (150 mM NaCl, 5 mM EDTA, 1% NP-40, 0.5% sodium deoxycholate, 0.1% SDS, 50 mM Tris, pH 8.0.) with Roche protease inhibitor complete cocktail and phosphatase inhibitors (10 mM sodium fluoride, 10 mM sodium pyrophosphate, 1 mM sodium orthovanadate and 20 mM β-glycerophosphate). The total protein concentrations were determined by Bradford Protein Assay (Pierce) and 10-20 μg of protein was loaded onto 4-15% Tris-Glycine gradient gels (Biorad). After standard gel electrophoresis, the separated proteins were transferred to PVDF membrane by wet transfer. The immunoblots were then blocked for 1 hour in 5% skim milk in TBST or 5% BSA in TBST, according to manufacturer's instructions, before an overnight incubation at 4° C. with indicated antibodies and membranes. Membranes were then incubated with the appropriate horseradish peroxidase-conjugated secondary antibodies (1:5,000 dilution) for 1 h at room temperature and the bands were visualized using the Clarity Max Western ECL Substrate (Biorad) and the ChemiDoc Imaging System (Biorad). Signal was detected with ECL Western Blotting Substrate (Pierce) and X-ray film processed with a Konica SRX-101 X-ray film processor or captured by Bio-Rad's Chemidoc Imaging system.
HT29 cells (2.5×10^6) were treated for 24 h with the compounds solubilized in DMSO. Compounds were added at 10 nM-10 μM each, as indicated in the description of the figures. Standardized protein samples were electrophoresed and imaged as described in the immunoblotting section above. c-MYC monomers (10058-F4 derivatives comprising catechol linkers), and CRBN ligands, 8048 and 8049 (pomalidomide derivatives comprising boronic acid linkers) combined in a 1:1 ratio.
HT29 cells (2.5×10^6) were treated for 24 h with the compounds solubilized in DMSO. Compounds were added at 100 nM-10 μM each.
HT29 cells (2.5×10^6) were treated for 24 h with the compounds solubilized in DMSO. Compounds were added at 100 nM-10 μM each. Standardized protein samples were electrophoresed and imaged as described in the immunoblotting section above. c-MYC monomer, MYC-E1, (a 10058-F4 derivative comprising boronic acid linkers), and CRBN ligands, 8046, 8047 and 8066 (pomalidomide derivatives comprising diol linkers) combined in a 1:1 ratio.
HT29 cells (2.5×10^6) were treated for 24 h with the compounds solubilized in DMSO. Compounds were added at 100 nM-10 μM each. Standardized protein samples were electrophoresed and imaged as described in the immunoblotting section above. c-MYC monomers, MYC-E6 (FIG. 90), MYC-E10 (FIG. 91), and MYC-E16 (FIG. 92) (10074-G5 derivatives comprising boronic acid linkers), and CRBN ligands, 8046, 8047 and 8066 (pomalidomide derivatives comprising diol linkers) combined in a 1:1 ratio.
HT29 cells (2.5×10^6) were treated for 24 h with the compounds solubilized in DMSO. Compounds were added at 10 nM-10 μM each. Standardized protein samples were electrophoresed and imaged as described in the immunoblotting section above. c-MYC monomer, MYC-N16 (FIG. 93) (10074-G5 derivatives comprising diol linkers), and VHL ligands, 8297 and 8298 (VH-298 derivatives comprising boronic acid linkers) were combined in a 1:1 ratio.
HT29 cells (2.5×10^6) were treated for 24 h with the compounds solubilized in DMSO. Compounds were added at 10 nM-10 μM each. Standardized protein samples were electrophoresed and imaged as described in the immunoblotting section above. c-MYC monomers, MYC-E7 (FIG. 96), MYC-E10 (FIG. 97), and MYC-E17 (FIG. 98), (10074-G5 derivatives comprising boronic acid linkers), and VHL ligands, 8297 and 8298 (VH-298 derivatives comprising diol linkers) were combined in a 1:1 ratio.
In general terms: In western blotting, separated proteins are transferred to a membrane and probed.

Experiment [2] has as its target T1, c-MYC. Kind of experiment: Summary of C-MYC degradation by CURE-PRO pairs, estimated from Western Blot or WES. Format: cell-based. Details: endogenous in cells; host or cells: HT29. The note with it: for Degradation of C-MYC, combination with CRBN ligand 8048: Table 10, aromatic 1,2-diol MYC ligand + 8048; for Degradation of C-MYC, combination with CRBN ligand 8046: Table 7, aryl-boronic acid MYC ligand + 8046; for Degradation of C-MYC, combination with CRBN ligand 8047: Table 7, aryl-boronic acid MYC ligand + 8047; for Degradation of C-MYC, combination with CRBN ligand 8049: Table 10, aromatic 1,2-diol MYC ligand + 8049. The procedure:
as §1
WES Simple analysis was performed on WES system (ProteinSimple-Biotechne) according to the manufacturer's instructions. Total protein concentrations of cell lysates were determined by the Pierce BCA kit (Thermo Fisher). 3 μL of 0.3 μg/μL of the protein lysate was loaded onto a 12- to 230-kDa WES assay plate (ProteinSimple) where 300 nL sample was withdrawn through a capillary, subjected to electrophoretic separation of proteins by size, and followed by the simultaneous, HRP-based detection of proteins using the Anti-Rabbit Detection Module (Proteinsimple: #DM-001). The electropherograms were checked then the automatic peak detection was manually corrected if it was required.
A black check mark indicates efficacy of 30% to 70% or higher protein degradation.

Setting [3] is: 1:1 with CRBN ligand 8048, HT29, 24 h, 10 nM-10 μM each.
The mark [4] stands for this setting: c-MYC monomer alone, HT29, 24 h, 10 nM-10 μM.
Where [5] appears, read: 1:1 with CRBN ligand 8046, HT29, 24 h, 100 nM-10 μM each.
Where [6] appears, read: 1:1 with CRBN ligand 8047, HT29, 24 h, 100 nM-10 μM each.
Setting [7] is: 1:1 with CRBN ligand 8066, HT29, 24 h, 100 nM-10 μM each.
Setting [8] is: 1:1 with VHL ligand 8298, HT29, 24 h, 10 nM-10 μM each.

T1 sequence (P01106 whole entry): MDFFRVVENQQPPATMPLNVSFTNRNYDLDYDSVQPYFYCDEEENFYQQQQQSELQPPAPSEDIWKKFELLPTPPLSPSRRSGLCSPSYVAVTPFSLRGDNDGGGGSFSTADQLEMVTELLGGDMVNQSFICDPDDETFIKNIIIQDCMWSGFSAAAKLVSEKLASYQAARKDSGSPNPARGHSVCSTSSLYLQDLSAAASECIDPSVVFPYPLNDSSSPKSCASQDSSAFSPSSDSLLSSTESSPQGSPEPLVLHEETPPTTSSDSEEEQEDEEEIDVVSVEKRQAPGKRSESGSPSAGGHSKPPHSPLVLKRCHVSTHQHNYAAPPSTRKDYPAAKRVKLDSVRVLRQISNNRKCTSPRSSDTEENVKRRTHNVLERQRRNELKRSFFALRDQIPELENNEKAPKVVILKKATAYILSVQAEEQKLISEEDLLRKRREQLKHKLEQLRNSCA

For `CCc1ccc(/C=C2\SC(=O)N(CCc3cccc(O)c3O)C2=O)cc1` [MYC-N4], the c-MYC degradation result in experiment [1] (setting [3]) is “caused c-MYC degradation”; in experiment [1] (setting [4]), “there is no degradation of c-MYC”. Further, the “Degradation of C-MYC, combination with CRBN ligand 8048” value (shortened to “Degradation … with CRBN ligand 8048”) in experiment [2] was “√ (A black check mark indicates efficacy of 30% to 70% or higher protein degradation)”.
On to `O=[N+]([O-])c1ccc(Nc2ccccc2-c2ccc(B(O)O)cc2)c2nonc12` [MYC-E6], for which the c-MYC degradation result in experiment [1] (setting [5]) was “no degradation was observed”; in experiment [1] (setting [6]) it was “caused degradation of c-MYC”; in experiment [1] (setting [7]), “no degradation was observed”. Besides, the “Degradation of C-MYC, combination with CRBN ligand 8046” value (“Degradation … with CRBN ligand 8046” for short) in experiment [2] is “√ (A black check mark indicates efficacy of 30% to 70% or higher protein degradation)”. In addition, the “Degradation of C-MYC, combination with CRBN ligand 8047” value in experiment [2] is on record as “√ (A black check mark indicates efficacy of 30% to 70% or higher protein degradation)”.
In the case of `O=C(NCc1cccc(O)c1O)c1ccccc1Nc1ccc([N+](=O)[O-])c2nonc12` [MYC-N16], the c-MYC degradation entry in experiment [1] (setting [3]) is given as “caused c-MYC degradation”; in experiment [1] (1:1 with VHL ligand 8297, HT29, 24 h, 10 nM-10 μM each) it was “caused degradation of c-MYC”; in experiment [1] (setting [8]), “caused degradation of c-MYC”; in experiment [1] (setting [4]), “there is no degradation of c-MYC; also recorded: no loss of c-MYC protein was observed”. Besides, the “Degradation … with CRBN ligand 8048” value in experiment [2] is given as “√ (A black check mark indicates efficacy of 30% to 70% or higher protein degradation)”. Further, the “Degradation of C-MYC, combination with MDM2 ligand 8312” value in experiment [2] (Table 11, aromatic 1,2-diol MYC ligand + 8312) was “√ (A black check mark indicates efficacy of 30% to 70% or higher protein degradation)”. Also, the “Degradation of C-MYC, combination with VHL ligand 8297” value in experiment [2] (Table 12, aromatic 1,2-diol MYC ligand + 8297) was “√ (A black check mark indicates efficacy of 30% to 70% or higher protein degradation)”. The “Degradation of C-MYC, combination with VHL ligand 8298” value in experiment [2] (Table 12, aromatic 1,2-diol MYC ligand + 8298) was “√ (A black check mark indicates efficacy of 30% to 70% or higher protein degradation)”.
On to `CCc1ccc(/C=C2\SC(=O)N(CC[C@H]3C[C@@H]4C[C@H]3[C@@H](O)[C@H]4O)C2=O)cc1` [MYC-N23], for which the c-MYC degradation entry in experiment [1] (setting [3]) was “caused c-MYC degradation”; in experiment [1] (setting [4]) it was “there is no degradation of c-MYC”. Besides, in experiment [2], the “Degradation of C-MYC, combination with CRBN ligand 8049” value is reported as “√ (A black check mark indicates efficacy of 30% to 70% or higher protein degradation)”.
With `Cc1ccc(CNC(=O)c2ccccc2Nc2ccc([N+](=O)[O-])c3nonc23)cc1B(O)O` [MYC-E16], in experiment [1] (setting [6]), the c-MYC degradation entry is “Some degradation is seen; also recorded: caused c-MYC degradation”. The “Degradation of C-MYC, combination with CRBN ligand 8047” value in experiment [2] is given as “√ (A black check mark indicates efficacy of 30% to 70% or higher protein degradation)”.
`O=C(NCc1cccc(B(O)O)c1)c1ccc(Nc2ccc([N+](=O)[O-])c3nonc23)cc1` [MYC-E10]: the c-MYC degradation result is given as “caused c-MYC degradation” in experiment [1] (setting [5]); “caused degradation of c-MYC” in experiment [1] (setting [8]); “caused loss of c-MYC protein” in experiment [1] (1:1 with VHL ligand 8305, HT29, 24 h, 10 nM-10 μM each). The “Degradation … with CRBN ligand 8046” value in experiment [2] was “√ (A black check mark indicates efficacy of 30% to 70% or higher protein degradation)”.
As to `CCc1ccc(/C=C2\SC(=O)N(Cc3cccc(B(O)O)c3)C2=O)cc1` [MYC-E1], the c-MYC degradation result is recorded as “Some degradation is seen; also recorded: causes degradation of c-MYC” in experiment [1] (setting [5]), “Some degradation is seen; also recorded: no degradation was observed” in experiment [1] (setting [6]) and “no degradation was observed” in experiment [1] (setting [7]). The “Degradation … with CRBN ligand 8046” value in experiment [2] is “√ (A black check mark indicates efficacy of 30% to 70% or higher protein degradation)”. The “Degradation of C-MYC, combination with CRBN ligand 8066” value in experiment [2] (Table 7, aryl-boronic acid MYC ligand + 8066) is recorded as “√ (A black check mark indicates efficacy of 30% to 70% or higher protein degradation)”.
For the compound `CCc1ccc(/C=C2\SC(=O)N(CCNC(=O)c3ccc(O)c(O)c3)C2=O)cc1` [MYC-N7], the c-MYC degradation result in experiment [1] (setting [3]) was “cause c-MYC protein degradation; also recorded: caused degradation of c-MYC”; in experiment [1] (1:1 with CRBN ligand 8049, HT29, 24 h, 10 nM-10 μM each), “cause c-MYC protein degradation; also recorded: caused degradation of c-MYC”; in experiment [1] (setting [4]), “there is no degradation of c-MYC”. Besides, the “Degradation of C-MYC, combination with CRBN ligand 8049” value in experiment [2] is listed as “√ (A black check mark indicates efficacy of 30% to 70% or higher protein degradation)”.
Turning to `CCc1ccc(/C=C2\CC(=O)N(CCNC(=O)[C@H]3C[C@@H]4C[C@H]3[C@@H](O)[C@H]4O)C2=O)cc1` [MYC-N29], the results for the c-MYC degradation result in experiment [1] (setting [3]) and in experiment [1] (setting [4]) were “caused c-MYC degradation” and “there is no degradation of c-MYC”, respectively. Moreover, the “Degradation … with CRBN ligand 8048” value in experiment [2] was “√ (A black check mark indicates efficacy of 30% to 70% or higher protein degradation)”.
